# Measured values: patent US11819476B2, “Rapamycin analogs and uses thereof” (Janssen Pharmaceutica NV, priority 2019, dated 2023)
# Entries after “also recorded” stand apart in the source; their conditions may differ.
# What was measured:
# Type in all cases: cell-based
# pS6K1 in MCF7 = experiment: AlphaLISA Ultra pS6K1 Assay; conditions: Homo sapiens, 1.5 h; MCF7 cells, 90 min incubation
# In short: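 MCF-7 cells treated with compounds for 90 min (0.5% DMSO final), then lysed and frozen at −80° C. Phospho-S6K1 in lysate measured by AlphaLISA Ultra with acceptor then donor beads, 2 h each.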
# [1] = test system: pS6K1 T389 in PC3 cells (mTORC1 pathway); experiment: Western blot based pS6K1 assay (mTORC1 pathway); conditions: 24 hours
# Description: (§1) Example 76: Western Blot Based pS6K1 and pAKT Assay at 24 and 48 Hour Timepoints
# (§2) Assay Protocol: • 1. Seed six well plate with 500,000 PC3 cells per well and incubate for […]. • 2. Add compounds into the cell plate. Incubate for 24 to 48 hours. • 4. Plate is placed on ice and the media is removed via aspiration. The wells are washed with 1 mL of 1×PBS and then fully aspirated. • 5. 110 μL of 1% Triton Lysis Buffer is added and each well is scraped vigorously. • 6. Cell homogenates are transferred to 1.5 mL eppendorf tubes on ice and spun down at 4° C. for 10 minutes at 10,000 rpm. • 7. Protein concentration of resulting cell lysates were quantified utilizing a Bradford assay and the samples run analyzed via Western blot on 4-12% Bis/Tris gels with 1×MES buffer. • 8. The gels were transferred onto membranes at 50V for 100 minutes, blocked with Odyssey Blocking buffer for 30 minutes then incubated overnight with primary antibody (pS6K1 T389 Rabbit or pAkt S473 Rabbit) overnight at 4° C. on a rotator. • 9. The membranes were washed 3× with TBS-T with a 5 minute incubation between each wash then incubated with secondary antibody (LiCor IRDye 800 Donkey Anti Rabbit) for at least 30 minutes. • 10. The membranes were washed 3× with TBS-T with a 5 minute incubation between each wash. • 11. The gels were then incubated for 5 minutes with PBS at room temperature then imaged using a Li-Cor.
# PC3 cells were treated with everolimus (0.1 μM, 0.01 μM, and 0.001 μM) or I-9 ([…], 0.1 μM, 0.01 μM, and 0.001 μM) for 24 hours.
# The methods employed were substantially similar to those described above. Compounds were evaluated in PC3 cells. Additional cell lines that may be used include Jurkat cells, wild-type mouse embryotic fibroblast (MEF) cells, tuberous sclerosis 2 (TSC2) negative (TSC−/−) MEF cells, and tuberous sclerosis 2 (TSC2) positive (TSC+/+) MEF cells. Cells are incubated with compounds of the present invention for various time periods (e.g., 5 minutes, 15 minutes, 30 minutes, 90 minutes, 24 hours, or 48 hours), and evaluated according to known methodologies, such as those herein described.
# [2] = test system: pAkt S473 in PC3 cells (mTORC2); experiment: Western blot based pAKT assay (mTORC2 pathway); conditions: 24 hours
# Description: as §1
# as §2, with “The membranes were washed 3× with TBS-T with a 5 minute incubation between each wash then incubated with secondary antibody (LiCor IRDye 800 Donkey Anti Rabbit) for at least 30 minutes. • 10. The membranes were washed 3× with TBS-T with a 5 minute incubation between each wash. • 11. The gels were then incubated for 5 minutes with PBS at room temperature then imaged using a Li-Cor.” left out
# The methods employed were substantially similar to those described above. Compounds were evaluated in PC3 cells. […] Cells are incubated with compounds of the present invention for various time periods (e.g., 5 minutes, 15 minutes, 30 minutes, 90 minutes, 24 hours, or 48 hours), and evaluated according to known methodologies, such as those herein described.
# mTORC1 over mTORC2 = experiment: mTORC1 selectivity over mTORC2 at 24 hrs (pS6K1 and pAKT assays); conditions: selectivity for mTORC1 over mTORC2 at 24 hrs
# Description: as §1, §2
# The compound numbers correspond to the compound numbers in Table 1.
# Compounds that are not selective at the 24 hrs mark are indicated by “NO” in the “mTORC1 selective @ 24 hrs” column of Table 4. Compounds that partially retain selectivity for mTORC1 inhibition over mTORC2 are indicated by “Partial” in the “mTORC1 selective @ 24 hrs” column of Table 4.
smiles,measurement,setting,value
"CO[C@@H]1C[C@H](C[C@@H](C)[C@@H]2CC(=O)[C@H](C)/C=C(\C)[C@@H](O)[C@@H](OC)C(=O)[C@H](C)C[C@H](C)/C=C/C=C/C=C(\C)[C@@H](OCCOC3COC3)C[C@@H]3CC[C@@H](C)[C@@](O)(O3)C(=O)C(=O)N3CCCC[C@H]3C(=O)O2)CC[C@H]1OCCO [Example I-9, (23E,25E,27E,28E,34R,35S,36R,37R,39S,41S,43S,44S,46R,47R,56R)-46,56-dihydroxy-44-[(1R)-2-[(1S,3R,4R)-4-(2-hydroxyethoxy)-3-methoxy-cyclohexyl]-1-methyl-ethyl]-47-methoxy-34,35,36,37,48,49-hexamethyl-43-[2-(oxetan-3-yloxy)ethoxy]-67,68-dioxa-57-azatricyclohexatriaconta-23,25,27(48),28(49)-tetraene-50,51,52,53,54-pentone]",IC50,pS6K1 in MCF7,0.1 to 1 nM
same,"inhibition of the mTORC1 pathway (pS6K1, Western blot)",[1],reduction in pS6K1; also recorded: moderate concentration dependent inhibition
same,"inhibition of mTORC2 (Akt phosphorylation, pAkt, Western blot)",[2],did not reduce
same,mTORC1 selective @ 24 hrs,mTORC1 over mTORC2,Yes
